Laboratory results taken from patent US8088763B2 (priority 2004, dated 2012).

Legend:
5HT-uptake = biological target: T1, 5HT-uptake (Rattus norvegicus, UniProt P31652); assay: biochemical; settings: for inhibition at 10 µM: read-out: 5HT-uptake [10 μM], % inhibition
T1 construct: synaptosomes were freshly isolated from areas of rats' brains

NA-uptake = NA-uptake (Rattus norvegicus, UniProt Q63380); assay: biochemical; settings: for inhibition at 10 µM: read-out: NA-uptake [10 μM], % inhibition
Chain of NA-uptake (Q63380 1-617): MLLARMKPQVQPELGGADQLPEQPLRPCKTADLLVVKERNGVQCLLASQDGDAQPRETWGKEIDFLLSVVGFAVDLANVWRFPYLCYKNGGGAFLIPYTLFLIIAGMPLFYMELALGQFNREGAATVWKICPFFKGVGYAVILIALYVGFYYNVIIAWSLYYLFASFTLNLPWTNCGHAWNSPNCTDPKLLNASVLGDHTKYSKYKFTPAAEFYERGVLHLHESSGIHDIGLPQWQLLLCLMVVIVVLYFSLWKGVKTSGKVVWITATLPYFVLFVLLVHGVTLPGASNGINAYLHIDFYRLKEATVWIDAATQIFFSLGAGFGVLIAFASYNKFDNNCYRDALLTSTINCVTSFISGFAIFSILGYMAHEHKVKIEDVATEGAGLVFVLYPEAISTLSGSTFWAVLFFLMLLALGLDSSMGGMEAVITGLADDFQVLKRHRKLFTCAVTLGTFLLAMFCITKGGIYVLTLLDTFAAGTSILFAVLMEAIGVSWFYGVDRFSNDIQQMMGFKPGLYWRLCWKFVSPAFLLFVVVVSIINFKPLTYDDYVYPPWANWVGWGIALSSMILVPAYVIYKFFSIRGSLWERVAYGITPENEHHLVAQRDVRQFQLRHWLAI

T1 sequence (P31652 whole entry): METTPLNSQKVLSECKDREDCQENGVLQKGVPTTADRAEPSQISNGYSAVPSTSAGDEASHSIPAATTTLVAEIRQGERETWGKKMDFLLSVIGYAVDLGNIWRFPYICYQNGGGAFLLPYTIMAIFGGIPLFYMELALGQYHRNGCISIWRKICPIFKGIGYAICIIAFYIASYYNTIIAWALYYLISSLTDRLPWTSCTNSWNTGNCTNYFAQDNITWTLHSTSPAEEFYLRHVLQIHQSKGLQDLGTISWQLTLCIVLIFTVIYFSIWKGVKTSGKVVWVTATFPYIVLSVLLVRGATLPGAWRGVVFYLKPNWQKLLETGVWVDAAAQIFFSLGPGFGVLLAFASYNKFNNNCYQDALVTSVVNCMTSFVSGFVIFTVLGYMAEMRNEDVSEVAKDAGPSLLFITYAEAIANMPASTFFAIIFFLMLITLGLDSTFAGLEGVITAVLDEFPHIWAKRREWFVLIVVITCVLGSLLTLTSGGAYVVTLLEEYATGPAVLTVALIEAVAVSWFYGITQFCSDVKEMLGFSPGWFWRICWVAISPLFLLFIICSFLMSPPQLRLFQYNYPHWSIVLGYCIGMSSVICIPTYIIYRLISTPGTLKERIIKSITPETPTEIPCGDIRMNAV

Row | Structure (SMILES) | inhibition at 10 µM (5HT-uptake) | inhibition at 10 µM (NA-uptake) | 5HT-uptake [10 μM], % inhibition (5HT-uptake) | NA-uptake [10 μM], % inhibition (NA-uptake)
1 | Cc1cccc(CC2(N(C)C)CCC(NC(=O)CCC(=O)N3CCc4[nH]c5ccc(F)cc5c4C3)CC2)c1 (centres unmarked) [Example 106, N-[4-dimethylamino-4-(3-methyl-benzyl)-cyclohexyl]-4-(8-fluoro-1,3,4,5-tetrahydro-pyrido[4,3-b]indol-2-yl)-4-oxo-butyramide] | 93% | 98% | – | –
2 | COc1ccc(NC(=O)CCC(=O)NC2CCC(Cc3ccc(Cl)cc3)(N(C)C)CC2)cc1 (centres unmarked) [Example 108, N-[4-(4-chloro-benzyl)-4-dimethylamino-cyclohexyl]-N′-(4-methoxy-phenyl)-succinamide] | 94% | 100% | – | –
3 | CN(C)C1(Cc2cccc(Cl)c2)CCC(NC(=O)CCC(=O)NC2CCOC2=O)CC1 (centres unmarked) [Example 2, N-[4-(3-chloro-benzyl)-4-dimethylamino-cyclohexyl]-N′-(2-oxo-tetrahydro-furan-3-yl)-succinamide] | 95% | 87% | – | –
4 | Cc1cccc(CC2(N(C)C)CCC(NC(=O)CCC(=O)N3CCC(C)CC3)CC2)c1 (centres unmarked) [Example 20, N-[4-dimethylamino-4-(3-methyl-benzyl)-cyclohexyl]-4-(4-methyl-piperidin-1-yl)-4-oxo-butyramide] | 92% | 90% | – | –
5 | Cc1ccc(CC2(N(C)C)CCC(NC(=O)CCC(=O)N3CCN(c4ccccn4)CC3)CC2)cc1 (centres unmarked) [Example 21, N-[4-dimethylamino-4-(4-methyl-benzyl)-cyclohexyl]-4-oxo-4-(4-pyridin-2-yl-piperazin-1-yl)-butyramide] | 95% | 83% | – | –
6 | Cc1ccc(CC2(N(C)C)CCC(NC(=O)CCC(=O)NC3CCCc4ccccc43)CC2)cc1 (centres unmarked) [Example 126, N-[4-dimethylamino-4-(4-methyl-benzyl)-cyclohexyl]-N′-(1,2,3,4-tetrahydro-naphthalen-1-yl)-succinamide] | 93% | 84% | – | –
7 | CN(C)C1(Cc2cccc(Cl)c2)CCC(NC(=O)CCC(=O)NCc2ccccn2)CC1 (centres unmarked) [Example 73, N-[4-(3-chloro-benzyl)-4-dimethylamino-cyclohexyl]-N′-pyridin-2-ylmethyl-succinamide] | 93% | 87% | – | –
8 | Cc1ccc(CC2(N(C)C)CCC(NC(=O)CCC(=O)N3CCN(c4cccc(C)c4)CC3)CC2)cc1 (centres unmarked) [Example 6, N-[4-dimethylamino-4-(4-methyl-benzyl)-cyclohexyl]-4-oxo-4-(4-m-tolyl-piperazin-1-yl)-butyramide] | 96% | 91% | – | –
9 | COc1cc(CN2CCN(C(=O)CCCC(=O)NC3CCC(Cc4ccccc4)(N(C)C)CC3)CC2)cc2c1OCO2 (centres unmarked) [Example 54] | – | – | 95% | 90%
10 | Cc1ccc(CC2(N(C)C)CCC(NC(=O)CCC(=O)N(C)CCc3ccccn3)CC2)cc1 (centres unmarked) [Example 38, N-[4-dimethylamino-4-(4-methyl-benzyl)-cyclohexyl]-N′-methyl-N′-(2-pyridin-2-yl-ethyl)-succinamide] | 95% | 79% | – | –
11 | CN(C)C1(Cc2cccc(Cl)c2)CCC(NC(=O)CCC(=O)NCCc2c[nH]c3ccccc23)CC1 (centres unmarked) [Example 99, N-[4-(3-chloro-benzyl)-4-dimethylamino-cyclohexyl]-N′-[2-(1H-indol-3-yl)-ethyl]-succinamicle] | – | – | 94% | 99%
12 | CN(Cc1cccnc1)C(=O)CCC(=O)NC1CCC(Cc2cccc(Cl)c2)(N(C)C)CC1 (centres unmarked) [Example 137, N-[4-(3-chloro-benzyl)-4-dimethylamino-cyclohexyl]-N′-methyl-N′-pyridin-3-ylmethyl-succinamide] | 94% | 83% | – | –
13 | Cc1ccc(CC2(N(C)C)CCC(NC(=O)CCC(=O)N(C)CCc3c[nH]c4ccccc34)CC2)cc1 (centres unmarked) [Example 36, N-[4-dimethylamino-4-(4-methyl-benzyl)-cyclohexyl]-N′-[2-(1H-indol-3-yl)-ethyl]-N′-methyl-succinamide] | 96% | 93% | – | –
14 | CN(CCc1c[nH]c2ccccc12)C(=O)CCC(=O)NC1CCC(Cc2ccc(Cl)cc2)(N(C)C)CC1 (centres unmarked) [Example 57, N-[4-(4-chloro-benzyl)-4-dimethylamino-cyclohexyl]-N′-[2-(1H-indol-3-yl)-ethyl]-N′-methyl-succinamide] | 93% | 100% | – | –
15 | CN(C)C1(Cc2cccc(Cl)c2)CCC(NC(=O)CCC(=O)NCCc2ccccn2)CC1 (centres unmarked) [Example 12, N-[4-(3-chloro-benzyl)-4-dimethylamino-cyclohexyl]-N′-(2-pyridin-2-yl-ethyl)-succinamide] | 92% | 95% | – | –
16 | Cc1cccc(CC2(N(C)C)CCC(NC(=O)CCC(=O)N3CCC(Cc4ccccc4)CC3)CC2)c1 (centres unmarked) [Example 103, 4-(4-benzyl-piperidin-1-yl)-N-[4-dimethylamino-4-(3-methyl-benzyl)-cyclohexyl]-4-oxo-butyramide] | 94% | 108% | – | –
17 | CCOP(=O)(Cc1ccc(NC(=O)CCC(=O)NC2CCC(Cc3ccc(Cl)cc3)(N(C)C)CC2)cc1)OCC (centres unmarked) [Example 93, (4-{3-[4-(4-chloro-benzyl)-4-dimethylamino-cyclohexylcarbamoyl]-propionylamino}-benzyl)-phosphonic acid diethylester] | 92% | 75% | – | –
18 | Cc1ccc(CC2(N(C)C)CCC(NC(=O)CCC(=O)N3CCN(C(=O)c4cnc(C)cn4)CC3)CC2)cc1 (centres unmarked) [Example 10, N-[4-dimethylamino-4-(4-methyl-benzyl)-cyclohexyl]-4-[4-(5-methyl-pyrazin-2-carbonyl)-piperazin-1-yl]-4-oxo-butyramide] | 92% | 78% | – | –
19 | CCC(C)C(NC(=O)CCC(=O)NC1CCC(Cc2cccc(C)c2)(N(C)C)CC1)C(=O)OC(C)(C)C (centres unmarked) [Example 102, 2-{3-[4-dimethylamino-4-(3-methyl-benzyl)-cyclohexylcarbamoyl]-propionylamino}-3-methyl-valeric acid tert-butyl ester] | 94% | 105% | – | –
20 | CN(Cc1cccnc1)C(=O)CCC(=O)NC1CCC(Cc2ccc(Cl)cc2)(N(C)C)CC1 (centres unmarked) [Example 72, N-[4-(4-chloro-benzyl)-4-dimethylamino-cyclohexyl]-N′-methyl-N′-pyridin-3-ylmethyl-succinamide] | 95% | 70% | – | –
21 | CN(C)C1(Cc2ccc(Cl)cc2)CCC(NC(=O)CCC(=O)N2CCN(C(=O)c3cccc(Cl)c3)CC2)CC1 (centres unmarked) [Example 134, 4-[4-(3-chloro-benzoyl)-piperazin-1-yl]-N-[4-(4-chloro-benzyl)-4-dimethylamino-cyclohexyl]-4-oxo-butyramide] | 92% | 101% | – | –
22 | Cc1ccc(CC2(N(C)C)CCC(NC(=O)CCC(=O)NC3CCN(Cc4c(Cl)cccc4Cl)C3)CC2)cc1 (centres unmarked) [Example 1, N-[1-(2,6-dichloro-benzyl)-pyrrolidin-3-yl]-N′-[4-dimethylamino-4-(4-methyl-benzyl)-cyclohexyl]-succinamide] | 93% | 71% | – | –
